Results published in US5358937A, “Glycosyl phospholipid derivatives of nucleosides and their use as medicines” (priority 1989, dated 1994).
“And” between values parts separate entries of the source, which are not always exact repeats. Equal entries are not always repeated. Where two headings read alike, the source gives them in different places.

Legend:
[1] = tested on: HIV virus; viral reverse transcriptase; assay: inhibition of viral replication by microassay of the enzymatic activity of the viral reverse transcriptase in CEM culture supernatants; format: cell-based; design: unit not given here
[2] = tested on: HIV virus (isolate LAV1-BRU); assay: inhibition of the cytopathogenic effect (CPE) of the HIV virus toward a continuous line of T4 lymphocytes by colorimetric assay with MTT; format: cell-based
in vitro = conditions: human, cem-c113 cells
[3] = HPLC assay of AZT in the brain of mice after oral administration; format: in vivo, Swiss mouse; conditions: for Phosphodiester detected by HPLC per gram of brain, mean (offset figure) / Phosphodiester detected by HPLC per gram of brain, individual value / Phosphotriester detected by HPLC per gram of brain, individual value: 25 mg/kg oral, 1 hour, CT 7625 0.64; for Phosphodiester detected by HPLC per gram of brain, mean (offset figure): AZT equivalent micromol per mouse: CT 6715 0.94, CT 6651 0.68; for Phosphodiester detected by HPLC per gram of brain, mean (offset figure) / Phosphodiester detected by HPLC per gram of brain, individual value: CT 7624 0.90; for Phosphodiester detected by HPLC per gram of brain, individual value: AZT equivalent micromol per mouse: CT 6715, CT 7626 0.94, CT 6651, CT 7627 0.68, 60 min; for Phosphodiester detected by HPLC per gram of brain, individual value / concentration at 1 h: 25 mg/kg; for concentration at 1 h: mouse, brain, po, read-out: Phosphodiester detected by HPLC per gram of brain, individual value; for Phosphotriester detected by HPLC per gram of brain, individual value: AZT equivalent micromol per mouse: CT 6651, CT 7627 0.68
Procedure: The assays are conducted on the Swiss mouse.
The compounds are dissolved in distilled water (or suspended in distilled water) before being administered by gavage; the assays are performed by administering each compound to 3 mice. The control consists of 3 mice receiving the equivalent of the vehicle, i.e. the same volume of distilled water as the treated mice. The brains are removed 1 hour after garage, homogenized in an acetonitrile-water (3/1) mixture, centrifuged and the supernatant is taken for the HPLC assay.
In a preliminary trial, favourable experimental conditions for the assays of the different compounds by HPLC are determined.
In the table which follows, each line corresponds to an assay series.

[4] = tested on: HIV virus (isolate LAV1-BRU); assay: selectivity index / protection index (CD50/ED50 ratio); format: cell-based
Text: Determination of the selectivity index
The higher the difference between the CD50 and the ED50, the more useful will be the product. This difference is quantified by the selectivity index (the CD50/ED50 ratio).

[5] = 31P-NMR study of the interactions between the phosphotriesters and model membranes (transmembrane transport)
[6] = Human immunodeficiency virus 1, CEM-c113, read-out: ED50 (protective dose 50%), D7 of culture, CEM-C113 cells
[7] = Human immunodeficiency virus 1, CEM-c113, read-out: ED50 (protective dose 50%), D11 of culture, CEM-C113 cells
[8] = Human immunodeficiency virus 1, CEM-c113, read-out: ED50 (protective dose 50%), D19 of culture, CEM-C113 cells
[9] = Human immunodeficiency virus 1, CEM-c113, read-out: ED50 (protective dose 50%), D22 of culture, CEM-C113 cells

SMILES | EC50 [2, 6] [nM] | EC50 [2, 7] [nM] | EC50 [2, 8] [nM] | EC50 [2, 9] [nM] | reverse transcriptase activity in culture supernatant ([1]; 1 uM, D7) | reverse transcriptase activity in culture supernatant ([1]; 1 uM, D11) | reverse transcriptase activity in culture supernatant ([1]; 1 uM, D18) | reverse transcriptase activity in culture supernatant ([1]; 1 uM, D19) | reverse transcriptase activity in culture supernatant ([1]; 1 uM, D22) | reverse transcriptase activity in culture supernatant ([1]; 1 uM, D26) | CC50 at 168 h (in vitro) [µM] | CC50 at 264 h (in vitro) [µM] | CC50 at 456 h (in vitro) [µM] | CC50 at 528 h (in vitro) [µM] | reverse transcriptase activity in culture supernatant ([1]; 0.2 uM, D7) | reverse transcriptase activity in culture supernatant ([1]; 0.2 uM, D11) | reverse transcriptase activity in culture supernatant ([1]; 0.2 uM, D18) | reverse transcriptase activity in culture supernatant ([1]; 0.2 uM, D19) | reverse transcriptase activity in culture supernatant ([1]; 0.2 uM, D22) | reverse transcriptase activity in culture supernatant ([1]; 0.2 uM, D26) | other results
Cc1cn([C@H]2CC[C@@H](CO)O2)c(=O)[nH]c1=O [ddT, 2', 3'-dideoxy thymidine, reference compound] | < 200 | 700 | 800 | > 25000 | 3000 | 1500 | 750 | 1200 | 350 | 600 | > 25 | < 25 | > 25 | > 25 | – | – | – | – | – | – | reverse transcriptase activity in culture supernatant ([1]; 5 uM, D7): 5000; reverse transcriptase activity in culture supernatant ([1]; 5 uM, D11): 2000; reverse transcriptase activity in culture supernatant ([1]; 5 uM, D18): 1400; reverse transcriptase activity in culture supernatant ([1]; 5 uM, D19): 5000; reverse transcriptase activity in culture supernatant ([1]; 5 uM, D22): 2100; reverse transcriptase activity in culture supernatant ([1]; 5 uM, D26): 5000; reverse transcriptase activity in culture supernatant ([1]; 25 uM, D7): 2500; reverse transcriptase activity in culture supernatant ([1]; 25 uM, D11): 1000; reverse transcriptase activity in culture supernatant ([1]; 25 uM, D18): 800; reverse transcriptase activity in culture supernatant ([1]; 25 uM, D19): 7000; reverse transcriptase activity in culture supernatant ([1]; 25 uM, D22): 4000; reverse transcriptase activity in culture supernatant ([1]; 25 uM, D26): 5000
Nc1ccn([C@H]2CC[C@@H](CO)O2)c(=O)n1 [ddC, dideoxycytidine, reference compound] | < 200 | – | – | – | – | – | – | – | – | – | 7 | 0.4 | < 0.2 | < 0.2 | – | – | – | – | – | – | PROTECTION INDICES (P.I.), CD50/ED50 ([4]; D7): > 35
Cc1cn([C@H]2C[C@H](N=[N+]=[N-])[C@@H](COP(=O)(O)OC[C@H]3OC(O)[C@@H](O)[C@@H](O)[C@@H]3O)O2)c(=O)[nH]c1=O (stereo partly drawn) [CT 7626, 6-D-mannosyl-5'(3'-azido) thymidinyl phosphate] | < 200 | 200 | 200 | 600 | 2700 | 1300 | 1200 | 5000 | 15000 | 50000 | > 25 | > 25 | 24 | 24 | 3400 | 3000 | 1700 | 12000 | 27000 | 85000 | reverse transcriptase activity in culture supernatant ([1]; 5 uM, D7): 1500; reverse transcriptase activity in culture supernatant ([1]; 5 uM, D11): 1000; reverse transcriptase activity in culture supernatant ([1]; 5 uM, D18): 1300; reverse transcriptase activity in culture supernatant ([1]; 5 uM, D19): 8000; reverse transcriptase activity in culture supernatant ([1]; 5 uM, D22): 12000; reverse transcriptase activity in culture supernatant ([1]; 5 uM, D26): 100000; reverse transcriptase activity in culture supernatant ([1]; 25 uM, D7): 1100; reverse transcriptase activity in culture supernatant ([1]; 25 uM, D11): 700; reverse transcriptase activity in culture supernatant ([1]; 25 uM, D18): 900; reverse transcriptase activity in culture supernatant ([1]; 25 uM, D19): 2200; reverse transcriptase activity in culture supernatant ([1]; 25 uM, D22): 900; reverse transcriptase activity in culture supernatant ([1]; 25 uM, D26): 900; concentration at 1 h [3]: 2050 ng/g

Now from value to compound, other results behind:

EC50 [2, 6] [nM] | EC50 [2, 7] [nM] | EC50 [2, 8] [nM] | EC50 [2, 9] [nM] | SMILES | reverse transcriptase activity in culture supernatant ([1]; 1 uM, D7) | reverse transcriptase activity in culture supernatant ([1]; 1 uM, D11) | reverse transcriptase activity in culture supernatant ([1]; 1 uM, D18) | reverse transcriptase activity in culture supernatant ([1]; 1 uM, D19) | reverse transcriptase activity in culture supernatant ([1]; 1 uM, D22) | reverse transcriptase activity in culture supernatant ([1]; 1 uM, D26) | CC50 at 168 h (in vitro) [µM] | CC50 at 264 h (in vitro) [µM] | CC50 at 456 h (in vitro) [µM] | CC50 at 528 h (in vitro) [µM] | reverse transcriptase activity in culture supernatant ([1]; 0.2 uM, D7) | reverse transcriptase activity in culture supernatant ([1]; 0.2 uM, D11) | reverse transcriptase activity in culture supernatant ([1]; 0.2 uM, D18) | reverse transcriptase activity in culture supernatant ([1]; 0.2 uM, D19) | reverse transcriptase activity in culture supernatant ([1]; 0.2 uM, D22) | reverse transcriptase activity in culture supernatant ([1]; 0.2 uM, D26) | other results
< 200 | < 200 | < 200 | 800 | Cc1cn([C@H]2C[C@H](N=[N+]=[N-])[C@@H](COP(=O)(O)OCCO[C@H]3O[C@H](CO)[C@@H](O)[C@H](O)[C@@H]3O)O2)c(=O)[nH]c1=O [CT 7624, 1ethoxy D-mannosyl 5'-(3'-azido) thymidinyl phosphate] | 2800 | 1900 | 2200 | 12000 | 26000 | 55000 | 25 | > 25 | > 25 | > 25 | 4400 | 2800 | 2600 | 24000 | 27000 | 70000 | reverse transcriptase activity in culture supernatant ([1]; 5 uM, D7): 1670; reverse transcriptase activity in culture supernatant ([1]; 5 uM, D11): 1003; reverse transcriptase activity in culture supernatant ([1]; 5 uM, D18): 852; reverse transcriptase activity in culture supernatant ([1]; 5 uM, D19): 2700; reverse transcriptase activity in culture supernatant ([1]; 5 uM, D22): 5500; reverse transcriptase activity in culture supernatant ([1]; 5 uM, D26): 42000; reverse transcriptase activity in culture supernatant ([1]; 25 uM, D7): 1204; reverse transcriptase activity in culture supernatant ([1]; 25 uM, D11): 372; reverse transcriptase activity in culture supernatant ([1]; 25 uM, D18): 304; reverse transcriptase activity in culture supernatant ([1]; 25 uM, D19): 2100; reverse transcriptase activity in culture supernatant ([1]; 25 uM, D22): 500; reverse transcriptase activity in culture supernatant ([1]; 25 uM, D26): 1700; Phosphodiester detected by HPLC per gram of brain, mean (offset figure) [3]: 2.31 µg; Phosphodiester detected by HPLC per gram of brain, individual value [3]: 0.92 µg and 3.70 µg
< 200 | 300 | 500 | 400 | CCCCCCCCCCCCCCCCOP(=O)(OC[C@H]1OC(O)[C@@H](O)[C@@H](O)[C@@H]1O)OC[C@H]1O[C@@H](n2cc(C)c(=O)[nH]c2=O)C[C@@H]1N=[N+]=[N-] (stereo partly drawn) [CT 7627, 6-D-mannosyl hexadecyl 5'-(3'-azido)-thymidinyl phosphate] | 2000 | 1100 | 500 | 1400 | 3900 | 20000 | 2.6 | 2.6 | 2.5 | 25 | 4000 | 4700 | 1700 | 11000 | 24000 | 73000 | interaction with / location in unilamellar vesicles (in words) [5]: interacts only with the external lipid layer of the unilamellar vesicles; PROTECTION INDICES (P.I.), CD50/ED50 [4]: > 13; Phosphotriester detected by HPLC per gram of brain, individual value [3]: 0 µg; concentration at 1 h [3]: 2050 ng/g
< 200 | 1000 | > 1000 | > 1000 | CCCCCCCCCCCCCCCCOP(=O)(OCCO[C@H]1O[C@H](CO)[C@@H](O)[C@H](O)[C@@H]1O)OC[C@H]1O[C@@H](n2cc(C)c(=O)[nH]c2=O)C[C@@H]1N=[N+]=[N-] (stereo partly drawn) [CT 7625, 1-ethoxy D-mannosyl hexadecyl 5'-(3'-azido) thymidinyl phosphate] | 6000 | 6000 | 5500 | 47000 | 48000 | 64000 | 20 | 28 | 3.4 | 24 | 3900 | 2900 | 2400 | 25000 | 52000 | 61000 | interaction with / location in unilamellar vesicles (in words) [5]: found in the intravesicular aqueous phase; Phosphotriester detected by HPLC per gram of brain, individual value [3]: 0 µg; Phosphodiester detected by HPLC per gram of brain, mean (offset figure) [3]: 2.34 µg; Phosphodiester detected by HPLC per gram of brain, individual value [3]: 1.17 µg and 3.51 µg
